Data from patent US8158441B2, “Method for detecting aggregate-forming circulating protein forms using an agent for aggregating said forms and an agent for capturing formed aggregates” (Biomerieux S.A., priority 2005, dated 2012).

Columns and labels:
[1] = test system: recombinant Tau protein; test: Capture/precipitation of recombinant Tau protein by agent II C6S, Western blotting of pellet and supernatant; conditions: C6S 0.5 mM to 60 mM, 30 minutes at 37° C., centrifugation
Procedure: It is identical to that described in point 2.1 above.
The assays are carried out as indicated in point 2.2 above, apart from the fact that C6S prepared as indicated patent application WO2004/059322 is used, with a concentration range of from 0.5 mM to 60 mM.

[2] = biological target: T1, recombinant alpha-synuclein (SYN) protein (Homo sapiens, UniProt P37840); test: Precipitation of recombinant alpha-synuclein spiked into human plasma by agent I, protein gel and Western blotting; conditions: 50 to 500 mg/ml agent I, 60 minutes at 37° C., Western blotting
T1 construct: purchased rPeptide
Procedure: After migration, two options are used: • The protein gel is stained with Coomassie Blue by adding gelcode blue stain reagent (Pierce) overnight at ambient temperature with shaking. […] 9.2 Detection in the Presence of the Agent I
The pellets are recovered and are separated from the supernatants. All the fractions are conserved. The pellets are taken up with 250 μl of SDS buffer. After denaturation, all the fractions are analyzed by the Western blotting technique.

[3] = biological target: T2, beta-amyloid peptide 1-42 (Homo sapiens, UniProt P05067); test: Circular dichroism of Aβ42 peptide with para-sulfonato-calix[4]arene; assay type: binding; conditions: in the presence of para-sulfonato-calix[4]arene, peptide/calixarene 1/1 to 1/5
T2 construct: synthetic beta-amyloid peptide 42 amino acids in length (beta-A peptide 1-42)
T2 sequence (P05067 672-713): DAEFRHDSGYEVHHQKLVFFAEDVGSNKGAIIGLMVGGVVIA
Procedure: The analysis is carried out by circular dichroism.
(§1) The beta-amyloid peptide to be analyzed as defined above, also called Aβ42, is extemporaneously dissolved at a stock concentration of 2.2×10^−4M in a solution of trifluoroethanol (TFE) at 20% in water in order to structure the β-amyloid peptides. The para-sulfonato-calix[n]arenes, prepared as described in Da Silva, E. et al., 2003, Tetrahedron, 59(37): 7357-7364, are dissolved at 100 μM in 50 mM phosphate buffer. The samples are prepared so as to be able to obtain a final concentration of 10 μM of beta-amyloid peptide in a phosphate buffer, i.e. for a final volume of 500 μL. The peptide concentration/calixarene concentration ratios can vary from 1/0 to 1/5.
A β-amyloid control without para-sulfonato-calix[n]arene is carried out: 22.5 μL of Aβ42 stock solution at 2.2×10^−4M (5 nmol) in 20% TFE, 477.5 μL of 50 mM phosphate buffer.
The samples are analyzed by circular dichroism between 180 and 260 nm.
The control is a sample of Aβ42 peptide without calixarene (1/0). The solutions are prepared for a final volume of 500 μL. The Aβ42 peptide has a molar mass of 4514 g/mol, the para-sulfonato-calix[4]arene has a molar mass of 744 g/mol.

[4] = biological target: T3, phosphorylated Tau protein (Homo sapiens, UniProt P10636); test: Precipitation of phosphorylated Tau protein from brain extracts spiked into plasma by agent I, PhosphoTau ELISA of pellet and supernatant; conditions: TET 100 mg/ml, 60 minutes at 37° C.
T3 construct: The assays are carried out with 25 ng of brain extracts; from tissue; host or cells: brain extracts from Alzheimer (AD+) and non-Alzheimer (AD-) patients, diluted in a pool of normal plasmas
T3 sequence (P10636 1-441 isoform P10636-8): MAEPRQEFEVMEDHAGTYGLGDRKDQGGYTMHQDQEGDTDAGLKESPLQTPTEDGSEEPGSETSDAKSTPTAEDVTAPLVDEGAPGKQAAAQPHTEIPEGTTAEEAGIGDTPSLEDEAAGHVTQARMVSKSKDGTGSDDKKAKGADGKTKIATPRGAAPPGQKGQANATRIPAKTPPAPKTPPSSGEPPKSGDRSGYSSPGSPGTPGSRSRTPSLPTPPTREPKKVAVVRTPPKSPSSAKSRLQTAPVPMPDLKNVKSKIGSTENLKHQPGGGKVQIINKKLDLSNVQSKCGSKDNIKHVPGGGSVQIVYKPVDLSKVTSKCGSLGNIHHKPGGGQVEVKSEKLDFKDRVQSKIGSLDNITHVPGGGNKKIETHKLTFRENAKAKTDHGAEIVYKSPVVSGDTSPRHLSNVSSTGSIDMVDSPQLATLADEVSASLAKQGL
Procedure: The PhosphoTau Elisa assay is based on the use of Dynex microplates to which are bound 3 μg/ml of goat anti-mouse Fc antibodies (Pierce) in a 25 mM KHPO4 buffer (pH 7.2) containing 140 mM NaCl, 1 mM EDTA and 2 mM NaN3, for three hours at 24° C. The wells are then passivated with a TBS (25 mM Tris-HCl, pH 7.5, 140 mM NaCl)-casein (1%) buffer for 1 h at 24° C., and then incubated for 2 h at 24° C. with 3 μg/ml of Tau1 (Chemicon) and CP27 (AppliedNeuroSolutions) antibodies diluted in TBS casein buffer.
Standards and brain extracts are diluted in a pool of normal plasmas for these assays and deposited at a rate of 80 μL per well in duplicate. […] 20 μl of this mixture are added to each well and incubated for 66 hours at 24° C. […] The biotinylated antibody is detected with 0.4 μg/ml of a streptavidin-peroxydase conjugate (Pierce) diluted in TBS-casein buffer and incubated for 45 minutes at 24° C. A Lumiglo reagent (Kirkegaard and Perry laboratories, US) is added to each well and the chemiluminescence is read in a luminometer (Berthold, Centro LB 960). […]
The samples are then centrifuged for 10 minutes at 13 000 rpm. […] The samples are then ready to be deposited on plates.
The samples are then centrifuged for 10 minutes at 13 000 rpm. […] The samples are then ready to be deposited onto plates.

[5] = biological target: T2, beta-amyloid peptide 1-42; test: Circular dichroism of Aβ42 peptide with chondroitin-6-sulfate; assay type: binding
Procedure: as §1, with “2.2×10^-4M” for “2.2×10^−4M”, “para-sulfonato-[…],” for “para-sulfonato-calix[n]arenes,”, “1/5. The samples are analyzed by circular dichroism between 180 and 260 nm. The protocol described in Example 5 above was repeated, with the exception that chondroitin-6-sulfate (Sigma) was used as agent II.” for “1/5.”

[6] = chondroitin-6-sulfate at a concentration equal to that of Aβ42

p-sulfonato-3,7-(2-aminoethyloxy)calix-[6]-arene [C6S]
fraction in which the Tau protein and its digested forms are found after treatment with C6S [1]: found in the pellet

[H]/N=C(/N)N[C@H]1[C@H](O)[C@@H](O)[C@H](O[C@@H]2O[C@@H](C)[C@](O)(C=O)[C@H]2O[C@@H]2O[C@@H](CO)[C@H](O)[C@@H](O)[C@@H]2NC)[C@@H](N/C(N)=N\[H])[C@@H]1O [streptomycin]
completeness of precipitation of the Syn protein (protein found in the supernatant fraction) [2]: not complete
fraction in which the Syn protein is found after treatment with agent I [2]: found in the pellet

O=S(=O)(O)c1cc2c(O)c(c1)Cc1cc(S(=O)(=O)O)cc(c1O)Cc1cc(S(=O)(=O)O)cc(c1O)Cc1cc(S(=O)(=O)O)cc(c1O)C2 [para-sulfonato-calix[4]arene]
aperiodic structure (200 nm) of Aβ42 as share of visible structures [3]: 38%
α-helix structure (210 nm) of Aβ42 as share of visible structures [3]: more than 37%
β-sheets (220 nm) of Aβ42 as share of visible structures [3]: more than 26%

NCCNCCNCCN [TET, triethylenetetramine]
completeness of precipitation of the Syn protein (protein found in the supernatant fraction) [2]: not complete
fraction in which the Syn protein is found after treatment with agent I [2]: found in the pellet
fraction in which the phosphorylated Tau protein is found after treatment with agent I [4]: found in the pellet

chondroitin-6-sulfate
aperiodic structure (at 200 nm) of Aβ42 [5, 6]: greater than 26%
α-helix (at 210 nm) of Aβ42 [5, 6]: more than 37%
β-sheet of Aβ42 at 220 nm [5, 6]: appears
secondary conformation adopted by Aβ42 ([5]; chondroitin-6-sulfate five times greater than the Aβ42 peptide): essentially aperiodic structure
